Assay results taken from BindingDB's records for PubMed 9190866 (Smithkline Beecham Pharmaceuticals, 1997).
Where a SMILES comes first, the peptide text is derived from it. [ ]: non-standard residue; d: D form. NMeF = CN[C@@H](Cc1ccccc1)C(=O)O

Legend:
Neuromedin-K receptor = biological target: T1, Neuromedin-K receptor (Homo sapiens, UniProt P29371)
T1 sequence (P29371 whole entry): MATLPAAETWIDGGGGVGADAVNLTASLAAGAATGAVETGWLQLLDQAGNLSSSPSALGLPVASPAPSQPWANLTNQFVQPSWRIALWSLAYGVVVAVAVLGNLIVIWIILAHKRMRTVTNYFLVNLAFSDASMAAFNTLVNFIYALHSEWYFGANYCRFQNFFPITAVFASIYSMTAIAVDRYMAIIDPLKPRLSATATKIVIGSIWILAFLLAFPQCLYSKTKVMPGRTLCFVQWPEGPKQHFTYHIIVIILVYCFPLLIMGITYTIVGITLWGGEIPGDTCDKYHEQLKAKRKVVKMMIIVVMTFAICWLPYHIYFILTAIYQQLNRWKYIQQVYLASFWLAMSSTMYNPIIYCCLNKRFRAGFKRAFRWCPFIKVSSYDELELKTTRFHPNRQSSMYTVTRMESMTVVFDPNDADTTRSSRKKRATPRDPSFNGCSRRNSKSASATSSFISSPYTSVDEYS

Substance-K receptor = biological target: T2, Substance-K receptor (Homo sapiens, UniProt P21452)
T2 sequence (P21452 whole entry): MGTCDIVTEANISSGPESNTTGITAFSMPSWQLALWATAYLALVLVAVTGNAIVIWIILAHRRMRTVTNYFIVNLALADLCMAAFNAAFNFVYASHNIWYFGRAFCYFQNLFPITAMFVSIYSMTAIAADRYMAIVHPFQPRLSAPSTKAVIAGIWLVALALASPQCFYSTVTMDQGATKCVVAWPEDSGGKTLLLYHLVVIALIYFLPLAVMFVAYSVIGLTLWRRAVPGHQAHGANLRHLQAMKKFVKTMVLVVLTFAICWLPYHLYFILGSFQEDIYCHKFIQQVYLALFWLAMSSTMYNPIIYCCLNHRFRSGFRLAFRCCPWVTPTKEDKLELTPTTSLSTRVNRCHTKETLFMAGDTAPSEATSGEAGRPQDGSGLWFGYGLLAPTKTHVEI

Substance-P receptor = Substance-P receptor (Homo sapiens, UniProt P25103)
Chain of Substance-P receptor (P25103 whole entry): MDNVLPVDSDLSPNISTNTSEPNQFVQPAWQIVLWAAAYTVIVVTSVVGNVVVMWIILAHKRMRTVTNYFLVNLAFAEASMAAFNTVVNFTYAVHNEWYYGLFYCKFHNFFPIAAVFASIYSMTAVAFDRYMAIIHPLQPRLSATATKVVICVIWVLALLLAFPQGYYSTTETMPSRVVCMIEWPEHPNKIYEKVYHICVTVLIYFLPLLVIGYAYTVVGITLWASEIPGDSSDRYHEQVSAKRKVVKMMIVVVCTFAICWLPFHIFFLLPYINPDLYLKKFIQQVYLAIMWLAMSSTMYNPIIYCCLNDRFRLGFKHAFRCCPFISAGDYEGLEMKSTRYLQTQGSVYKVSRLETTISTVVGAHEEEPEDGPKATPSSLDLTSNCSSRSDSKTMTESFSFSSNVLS

| SMILES | Ki (Neuromedin-K receptor) | Ki (Substance-K receptor) | Ki (Substance-P receptor) |
| --- | --- | --- | --- |
| COc1ccccc1CN[C@H]1CCCN[C@H]1c1ccccc1 [(+/-)(2-Methoxy-benzyl)-(2-phenyl-piperidin-3-yl)-amine] | > 10000 nM | > 10000 nM | – |
| CSCC[C@H](NC(=O)[C@H](CC(C)C)NC(=O)CNC(=O)[C@H](Cc1ccccc1)N(C)C(=O)[C@H](Cc1ccccc1)NC(=O)[C@H](Cc1ccccc1)NC(=O)[C@H](CC(=O)O)NC(=O)[C@H](Cc1cnc[nH]1)NC(=O)[C@H](CCSC)NC(=O)[C@@H](N)CC(=O)O)C(N)=O [NKB [MePhe7]] (H-DMHDFF[NMeF]GLM-NH2) | 0.31 nM | – | > 10000 nM |
| CSCC[C@H](NC(=O)[C@H](CC(C)C)NC(=O)CNC(=O)[C@@H](NC(=O)[C@H](Cc1ccccc1)NC(=O)[C@H](Cc1ccccc1)NC(=O)[C@H](CC(=O)O)NC(=O)[C@H](Cc1c[nH]cn1)NC(=O)[C@H](CCSC)NC(=O)[C@@H](N)CC(=O)O)C(C)C)C(N)=O [NSC_5311312] | – | 16.5 nM | – |
| CC(=O)NC1(c2ccccc2)CCN(CCC(CN(C)C(=O)c2ccccc2)c2ccc(Cl)c(Cl)c2)CC1 (stereo not drawn) [SR 48968] | 707 nM | 0.23 nM | 454 nM |
